# Results taken from PubChem BioAssay AID330 (DTP/NCI, 2004).
# Several values for one entry are separate records, joined by “and”; a condition that tells them apart may be missing. Equal entries are not always repeated. Inconclusive results and toxic doses are left out. Peptide text beside a SMILES is read from it.
# Test system: P388 leukemia ip, CD2F1 mice, survival T/C
# Assay: NCI In Vivo Anticancer Drug Screen. Data for tumor model P388 Leukemia (intraperitoneal) in CD2F1 (CDF1) mice
# Conditions: endpoint: median survival time, higher = longer survival
# Method in brief: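 Mice carrying the transplanted tumor received test compound or vehicle. Survival was recorded in each group, and the value is the treated-group measurement divided by that of the vehicle-treated control group.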
# [1] = dose: 6.25 mg/kg/injection, schedule: Q01DX009 (ip), vehicle: water
# [2] = dose: 50.0 mg/kg/injection, schedule: Q01DX005 (ip), vehicle: Klucel (hydroxypropylcellulose) (HPC)
# [3] = dose: 100.0 mg/kg/injection, schedule: Q01DX005 (ip), vehicle: Klucel (hydroxypropylcellulose) (HPC)
# [4] = dose: 200.0 mg/kg/injection, schedule: Q01DX005 (ip), vehicle: Klucel (hydroxypropylcellulose) (HPC)
# [5] = dose: 50.0 mg/kg/injection, schedule: Q01DX005 (ip), vehicle: saline with Tween-80
# [6] = dose: 100.0 mg/kg/injection, schedule: Q01DX005 (ip), vehicle: saline with Tween-80
smiles,measurement,setting,value
O=C(O)C1(C(=O)O)CCC1.[NH2-].[NH2-].[Pt+2],T/C,"dose: 6.25 mg/kg/injection, schedule: Q01DX005 (ip), vehicle: water",152 % of control
same,T/C,[1],167 % of control
same,T/C,"dose: 12.5 mg/kg/injection, schedule: Q01DX001 (im), vehicle: suspension in saline",105 % of control
same,T/C,"dose: 12.5 mg/kg/injection, schedule: Q01DX001 (ip), vehicle: suspension in saline",117 % of control
same,T/C,"dose: 12.5 mg/kg/injection, schedule: Q01DX001 (iv), vehicle: suspension in saline",108 % of control
same,T/C,"dose: 12.5 mg/kg/injection, schedule: Q01DX001 (sc), vehicle: suspension in saline",103 % of control
same,T/C,"dose: 12.5 mg/kg/injection, schedule: Q01DX005 (ip), vehicle: water",166 % of control
same,T/C,"dose: 12.5 mg/kg/injection, schedule: Q01DX009 (ip), vehicle: saline",113 % of control
same,T/C,"dose: 12.5 mg/kg/injection, schedule: Q01DX009 (ip), vehicle: water",189 % of control
same,T/C,"dose: 12.5 mg/kg/injection, schedule: Q04DX003 (iv), vehicle: saline",110 % of control
same,T/C,"dose: 25.0 mg/kg/injection, schedule: Q01DX001 (im), vehicle: suspension in saline",117 % of control
same,T/C,"dose: 25.0 mg/kg/injection, schedule: Q01DX001 (ip), vehicle: saline",107 % of control
same,T/C,"dose: 25.0 mg/kg/injection, schedule: Q01DX001 (ip), vehicle: suspension in saline",121 % of control
same,T/C,"dose: 25.0 mg/kg/injection, schedule: Q01DX001 (iv), vehicle: suspension in saline",106 % of control
same,T/C,"dose: 25.0 mg/kg/injection, schedule: Q01DX001 (oral), vehicle: suspension in saline",100 % of control
same,T/C,"dose: 25.0 mg/kg/injection, schedule: Q01DX001 (sc), vehicle: suspension in saline",107 % of control
same,T/C,"dose: 25.0 mg/kg/injection, schedule: Q01DX005 (ip), vehicle: water",194 % of control
same,T/C,"dose: 25.0 mg/kg/injection, schedule: Q01DX005 (iv), vehicle: water",90 % of control
same,T/C,"dose: 25.0 mg/kg/injection, schedule: Q01DX009 (ip), vehicle: saline",152 % of control
same,T/C,"dose: 25.0 mg/kg/injection, schedule: Q01DX009 (ip), vehicle: water",112 % of control
same,T/C,"dose: 25.0 mg/kg/injection, schedule: Q04DX003 (ip), vehicle: saline",114 % of control
same,T/C,"dose: 25.0 mg/kg/injection, schedule: Q04DX003 (ip), vehicle: water",186 % of control
same,T/C,"dose: 25.0 mg/kg/injection, schedule: Q04DX003 (iv), vehicle: saline",113 % of control
same,T/C,"dose: 50.0 mg/kg/injection, schedule: Q01DX001 (im), vehicle: suspension in saline",110 % of control
same,T/C,"dose: 50.0 mg/kg/injection, schedule: Q01DX001 (ip), vehicle: suspension in saline",124 % of control
same,T/C,"dose: 50.0 mg/kg/injection, schedule: Q01DX001 (ip), vehicle: water",161 % of control
same,T/C,"dose: 50.0 mg/kg/injection, schedule: Q01DX001 (iv), vehicle: suspension in saline",110 % of control
same,T/C,"dose: 50.0 mg/kg/injection, schedule: Q01DX001 (oral), vehicle: suspension in saline",103 % of control
same,T/C,"dose: 50.0 mg/kg/injection, schedule: Q01DX001 (sc), vehicle: suspension in saline",110 % of control
same,T/C,"dose: 50.0 mg/kg/injection, schedule: Q01DX009 (ip), vehicle: saline",100 % of control
same,T/C,"dose: 50.0 mg/kg/injection, schedule: Q04DX003 (ip), vehicle: water",217 % of control
same,T/C,"dose: 50.0 mg/kg/injection, schedule: Q04DX003 (iv), vehicle: saline",117 % of control
same,T/C,"dose: 50.0 mg/kg/injection, schedule: Q04DX003 (oral), vehicle: saline",116 % of control
same,T/C,"dose: 100.0 mg/kg/injection, schedule: Q01DX001 (im), vehicle: suspension in saline",111 % of control
same,T/C,"dose: 100.0 mg/kg/injection, schedule: Q01DX001 (ip), vehicle: water",164 % of control
same,T/C,"dose: 100.0 mg/kg/injection, schedule: Q01DX001 (iv), vehicle: saline",105 % of control
same,T/C,"dose: 100.0 mg/kg/injection, schedule: Q01DX001 (iv), vehicle: suspension in saline",115 % of control
same,T/C,"dose: 100.0 mg/kg/injection, schedule: Q01DX001 (iv), vehicle: water",93 % of control
same,T/C,"dose: 100.0 mg/kg/injection, schedule: Q01DX001 (sc), vehicle: suspension in saline",120 % of control
same,T/C,"dose: 100.0 mg/kg/injection, schedule: Q04DX003 (ip), vehicle: saline",170 % of control
same,T/C,"dose: 100.0 mg/kg/injection, schedule: Q04DX003 (ip), vehicle: water",96 % of control
same,T/C,"dose: 100.0 mg/kg/injection, schedule: Q04DX003 (iv), vehicle: saline",123 % of control
same,T/C,"dose: 100.0 mg/kg/injection, schedule: Q04DX003 (oral), vehicle: saline",114 % of control
same,T/C,"dose: 200.0 mg/kg/injection, schedule: Q01DX001 (im), vehicle: suspension in saline",105 % of control
same,T/C,"dose: 200.0 mg/kg/injection, schedule: Q01DX001 (iv), vehicle: suspension in saline",100 % of control
same,T/C,"dose: 200.0 mg/kg/injection, schedule: Q01DX001 (oral), vehicle: saline",104 % of control
same,T/C,"dose: 200.0 mg/kg/injection, schedule: Q01DX001 (oral), vehicle: suspension in saline",110 % of control
same,T/C,"dose: 200.0 mg/kg/injection, schedule: Q01DX001 (sc), vehicle: suspension in saline",107 % of control
same,T/C,"dose: 200.0 mg/kg/injection, schedule: Q04DX003 (oral), vehicle: saline",117 % of control
same,T/C,"dose: 400.0 mg/kg/injection, schedule: Q01DX001 (iv), vehicle: saline",91 % of control
same,T/C,"dose: 400.0 mg/kg/injection, schedule: Q01DX001 (oral), vehicle: saline",100 % of control
same,T/C,"dose: 400.0 mg/kg/injection, schedule: Q01DX001 (oral), vehicle: suspension in saline",101 % of control
same,T/C,"dose: 400.0 mg/kg/injection, schedule: Q04DX003 (oral), vehicle: saline",122 % of control
CCCCSc1ccc(NN=O)nc1,T/C,"dose: 1.56 mg/kg/injection, schedule: Q01DX009 (ip), vehicle: water",118 % of control
same,T/C,[1],151 % of control
CC1(C)OC2C(COC(=O)c3ccccc3)OC(n3cnc4c(=NC(=O)c5ccccc5)n(C(=O)c5ccccc5)cnc43)C2O1 (stereo not drawn),T/C,[2],94 % of control
same,T/C,[3],94 % of control
S=c1[nH]c2ccc(Cl)cc2s1,T/C,"dose: 50.0 mg/kg/injection, schedule: Q01DX009 (ip), vehicle: Klucel (hydroxypropylcellulose) (HPC)",98 % of control
same,T/C,"dose: 100.0 mg/kg/injection, schedule: Q01DX009 (ip), vehicle: Klucel (hydroxypropylcellulose) (HPC)",101 % of control
same,T/C,"dose: 200.0 mg/kg/injection, schedule: Q01DX009 (ip), vehicle: Klucel (hydroxypropylcellulose) (HPC)",90 % of control
same,T/C,"dose: 400.0 mg/kg/injection, schedule: Q01DX009 (ip), vehicle: Klucel (hydroxypropylcellulose) (HPC)",95 % of control
FC(F)(F)C1(C(F)(F)F)O[P+]2(OC(C(F)(F)F)(C(F)(F)F)c3ccccc32)c2ccccc21,T/C,[2],97 % of control
same,T/C,[3],105 % of control
same,T/C,[4],106 % of control
N#Cc1ncc(C=P(c2ccccc2)(c2ccccc2)c2ccccc2)n(O)c1=N,T/C,"dose: 50.0 mg/kg/injection, schedule: Q01DX009 (ip), vehicle: saline with Tween-80",101 % of control
same,T/C,"dose: 100.0 mg/kg/injection, schedule: Q01DX009 (ip), vehicle: saline with Tween-80",104 % of control
CC1CCCN2C(=O)CN(CCc3ccccc3)CC(=O)N12 (stereo not drawn),T/C,[5],99 % of control
same,T/C,[6],100 % of control
same,T/C,"dose: 200.0 mg/kg/injection, schedule: Q01DX005 (ip), vehicle: saline with Tween-80",100 % of control
CC(C)CC(NC(=O)C(NC(=O)C(N)C(C)O)C(C)C)C(=O)O (stereo not drawn) (H-Thr-Val-Leu-OH; configuration not given here),T/C,[2],95 % of control
same,T/C,[3],101 % of control
same,T/C,[4],104 % of control
CC(=O)/C(=C\c1ccc(Cl)c(Cl)c1)C(=O)C(C)CN(C)C (stereo not drawn),T/C,"dose: 12.5 mg/kg/injection, schedule: Q01DX005 (ip), vehicle: saline with Tween-80",119 % of control and 120 % of control
same,T/C,"dose: 25.0 mg/kg/injection, schedule: Q01DX005 (ip), vehicle: saline with Tween-80",118 % of control
same,T/C,[5],115 % of control and 116 % of control and 121 % of control
N=C(N)N=Nc1cc(O)c(NN=C(N)N)cc1O,T/C,"dose: 1.56 mg/kg/injection, schedule: Q01DX005 (ip), vehicle: saline with Tween-80",102 % of control
same,T/C,"dose: 3.13 mg/kg/injection, schedule: Q01DX005 (ip), vehicle: saline with Tween-80",99 % of control
same,T/C,"dose: 6.25 mg/kg/injection, schedule: Q01DX005 (ip), vehicle: saline with Tween-80",102 % of control
CC(=O)NC1=NN(C(C)=O)C(c2ccccc2)S1=O (stereo not drawn),T/C,[5],108 % of control
same,T/C,[6],107 % of control
OCCN(CCO)Cc1nc2ccc(Cl)cc2[nH]1,T/C,"dose: 50.0 mg/kg/injection, schedule: Q01DX005 (ip), vehicle: saline",98 % of control
same,T/C,"dose: 100.0 mg/kg/injection, schedule: Q01DX005 (ip), vehicle: saline",91 % of control
same,T/C,"dose: 200.0 mg/kg/injection, schedule: Q01DX005 (ip), vehicle: saline",95 % of control
